Experimental data from patent US20070141181A1, “Use of anabolic agents, anti-catabolic agents, antioxidant agents, and analgesics for protection, treatment and repair of connective tissues in humans and animals” (NUTRAMAX LABORATORIES, INC., priority 1998, published 2007).
“And” between values parts separate entries of the source, which are not always exact repeats. Equal entries are not always repeated.

System: adult bovine cartilage cells
Assay: GAG synthesis (35-sulfate incorporation) in cultured cartilage cells
Assay type: cell-based
Conditions: 4 hours incubation, individual agent
Experimental: Articular cartilage was resected from human or animal joints aseptically and placed into a large petri dish in a small amount of DMEM/F-12 or F-12. The tissue was diced to 1-2 mm dimensions and transferred to a small culture flask containing 20 mL DMEM or F-12+400 u/mL collagenase. The flask was placed on the shaker and incubated overnight.
The cell digest was repeatedly aspirated to increase release of cells. The cell digest was then placed into a 50 mL sterile centrifuge tube and centrifuged in the Beckman at 1000 RPM for 10 minutes. The medium was discarded by pipette and fresh DMEM/F-12 containing 1% FCS added. Depending on the size of the pellet, about […] medium was added. Cell counts were determined by haemocytometer and the digest made up to a concentration of 100,000 cells/0.2 mL.
To conduct GAG synthesis, 0.2 mL was aliquoted into each well of a 96 well plate using an 8 channel pipetter and the cells allowed to attach for 24 hours. The media was removed and 0.3 mL of fresh 1% FCS media added for 2-3 days. On the day of the experiment, the media was removed and the experimental solutions containing 35-sulfate isotope were added. The incubation was continued for 4 hours. Termination: at the end of the incubation period, the labeling media was removed, the cell layer was rinsed repeatedly with cold 0.3 mL DMEM or F-12 (about 5 times.), and the cell layer was frozen for counting.
The cell layer for both the synthesis experiments were heated at 50 degrees after adding 100 ul 1 N NaOH for a period of 2 hours. 200 ul scintillant was added and the plates were placed in the counter. The data was expressed as CPM/100,000 cells.

Molecule	Indv. Agents: CPM/100,000 cells	Indv. Agents: CPM/100,000 cells (listed as 3% Sam)	Indv. Agents: CPM/100,000 cells (listed as ChS04-H)
C[S+](CC[C@H](N)C(=O)[O-])C[C@H]1O[C@@H](n2cnc3c(N)ncnc32)[C@H](O)[C@@H]1O (some centres unmarked) [1% Sam, S-adenosylmethionine]	123 CPM/100,000 cells	42 CPM/100,000 cells	
CCCCC/C=C\C/C=C\C/C=C\C/C=C\CCCC(=O)O [AA, Arachadonic Acid]	70 CPM/100,000 cells		
N[C@H]1C(O)O[C@H](CO)[C@@H](O)[C@@H]1O (some centres unmarked) [Glu-H, Glucosamine]	117 CPM/100,000 cells		
Chondroitin [CHSO4-L]	64 CPM/100,000 cells		50 CPM/100,000 cells
Collagen	118 CPM/100,000 cells (3×) and 70 CPM/100,000 cells		
Pentosan [10Pentos]	76 CPM/100,000 cells		
